Results published in patent US20200206233A1 (INTEGRAL BIOSCIENCES PRIVATE LIMITED, priority 2018, published 2020).

Columns and labels:
Assay type in all cases: biochemical
IDH2 mutant (R140Q) = target: T1, IDH2 mutant (R140Q) (Homo sapiens, UniProt P48735, R140Q); experiment: Mutant IDH2-R140Q Fluorescence Assay (Resazurin based); details: 5 nM IDH2 R140Q, 4 hr pre-incubation, 1 mM α-ketoglutarate, 5 μM NADPH, 2 h
T1 construct: purchased BPS Bioscience 71100-2
T1 sequence (P48735 40-452 R140Q): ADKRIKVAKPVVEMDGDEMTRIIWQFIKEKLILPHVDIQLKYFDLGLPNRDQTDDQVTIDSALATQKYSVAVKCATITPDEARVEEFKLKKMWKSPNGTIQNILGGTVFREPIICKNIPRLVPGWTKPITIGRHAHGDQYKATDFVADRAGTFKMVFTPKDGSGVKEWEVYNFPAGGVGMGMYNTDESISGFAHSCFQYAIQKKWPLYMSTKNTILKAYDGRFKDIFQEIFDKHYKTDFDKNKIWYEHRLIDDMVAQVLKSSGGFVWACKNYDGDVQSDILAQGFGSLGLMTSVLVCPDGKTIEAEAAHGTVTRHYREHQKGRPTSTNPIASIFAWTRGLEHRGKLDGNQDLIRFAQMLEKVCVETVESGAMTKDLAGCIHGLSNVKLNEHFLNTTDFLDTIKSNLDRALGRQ
Protocol: IC50 values of compounds against IDH2 mutant (R140Q) were determined by Resazurin based Fluorescence assay. Assay was performed in Buffer (25 mM Tris HCl, 150 mM NaCl, 10 mM MgCl2, 0.03% BSA, 2 mM 1-mercaptoethanol) where total reaction volume was 12.5 μL in low-volume 384-well plates (Cat #4511, Corning). Serially diluted compounds (3-fold) were pre-incubated with IDH2 R140Q mutant enzyme (5 nM; Cat #71100-2, BPS Bioscience) for 4 hr at RT (25° C.) followed by addition of cocktail of α-ketoglutarate (1 mM; Cat #75892-25G, Sigma), and NADPH (5 μM; Cat # N1630-100MG, Sigma) with buffer in dark at room temperature for 2 h. After 2 h incubation, 6.25 μL detection solution containing Resazurin (30 μM; (Cat #62758-13-8, Sigma) and Diaphorase (40 ug/ml; Cat # D2197-300UN, Sigma) in buffer was added and incubated for 15 min. Readings were taken in a Synergy Neo Plate reader (BioTek, Winooski) at single excitation of 540 nm and emission at 590 nm respectively.
The % activity of test samples was calculated as (Sample−Min)×100/(Max−Min). [Max: DMSO control, complete reaction with enzyme with DMSO and Min: No enzyme with DMSO]. Percent inhibition (100−% activity) was fitted to the “four-parameter logistic model” in XLfit for determination of IC50 values.

IDH1 mutant (R132H) = target: T2, IDH1 mutant (R132H) (Homo sapiens, UniProt O75874, R132H); experiment: Mutant IDH1-R132H Fluorescence Assay (Resazurin based); details: 10 nM IDH1 R132H, 4 mM α-ketoglutarate, NADPH, 1.5 h at room temperature
T2 construct: purchased BPS Bioscience 71099-2
T2 sequence (O75874 whole entry R132H): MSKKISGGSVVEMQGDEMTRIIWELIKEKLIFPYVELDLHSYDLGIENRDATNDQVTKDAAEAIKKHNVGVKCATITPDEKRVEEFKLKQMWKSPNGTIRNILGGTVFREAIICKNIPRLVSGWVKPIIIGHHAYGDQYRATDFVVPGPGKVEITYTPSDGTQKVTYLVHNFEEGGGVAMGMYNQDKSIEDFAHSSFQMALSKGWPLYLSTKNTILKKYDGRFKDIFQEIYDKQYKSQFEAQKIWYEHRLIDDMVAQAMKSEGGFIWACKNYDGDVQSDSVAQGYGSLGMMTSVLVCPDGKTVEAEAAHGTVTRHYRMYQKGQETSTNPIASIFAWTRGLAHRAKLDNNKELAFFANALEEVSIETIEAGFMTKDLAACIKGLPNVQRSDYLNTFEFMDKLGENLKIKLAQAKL
In short: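 Recombinant IDH1 R132H (10 nM) was run with α-ketoglutarate (4 mM) and NADPH ([…]) for 1.5 h at room temperature in Tris pH buffer with MgCl2, BSA and mercaptoethanol. Remaining NADPH was detected via diaphorase/resazurin fluorescence (ex 540/em 590 nm). IC50 came from a 4-parameter logistic fit.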

IDH1-WT = target: T3, IDH1-WT (Homo sapiens, UniProt O75874); experiment: IDH1-WT Fluorescence Assay (Resazurin based); details: 1 nM IDH1-WT, 200 μM isocitrate, 15 μM NADP+, 30 min at room temperature
T3 construct: purchased BPS Bioscience 71075-2
T3 sequence (O75874 whole entry): as the sequence (O75874 whole entry R132H) above, with H132R counted along it
Protocol: IC50 values of compounds against IDH1-WT was determined by Resazurin based Fluorescence assay. Assays were performed in Buffer (50 mM Tris HCl, 10 mM MgCl2, 0.03% BSA, 2 mM ß-mercaptoethanol) where total reaction volume was 25 μL in low-volume 96-well plates. Serially diluted compounds (3-fold) in DMSO (0.5% in final reaction) were incubated with cocktail of isocitrate (200 μM; Cat # I1252-1G, Sigma), NADP^+ (15 μM; Cat # N0505-500MG, Sigma) and buffer for 5 min, following addition of IDH1-WT enzyme (1 nM; Cat #71075-2, BPS Bioscience) and incubated in dark at room temperature for 30 min. After that, 12.5 μL detection solution containing Resazurin (60 μM; Cat #62758-13-8, Sigma) and Diaphorase (40 μg/ml; Cat # D2197-300UN, Sigma) in buffer was added and incubated for 15 min. Readings were taken using a Synergy Neo Plate reader (BioTek, Winooski) at single excitation of 540 nm and emission at 590 nm respectively.
The % (percent) activity of test samples was calculated as (Sample−Min)×100/(Max−Min). [Max: DMSO control, complete reaction with enzyme with DMSO and Min: No enzyme with DMSO]. Percent inhibition (100−% activity) was fitted to the “four-parameter logistic model” in XLfit for determination of IC50 values.

SMILES | IC50 (IDH2 mutant (R140Q)) [µM] | IC50 (IDH1 mutant (R132H)) [µM] | IC50 (IDH1-WT) [µM]
C[C@H](Nc1ncnc(N2C(=O)OC[C@@H]2c2ccccc2)n1)c1cn(-c2ccc(C(F)(F)F)cc2)cn1 [Compound 1.26, (S)-4-phenyl-3-(4-((S)-1-(1-(4-(trifluoromethyl)phenyl)-1H-imidazol-4-yl)ethylamino)-1,3,5-triazin-2-yl)oxazolidin-2-one] | > 50 | 3.04 | > 50
CC[C@H]1COC(=O)N1c1nc(C)nc(N[C@@H](C)c2ccc(Oc3ccccc3)c(F)c2)n1 [Compound 1.84, (S)-4-ethyl-3-(4-((S)-1-(3-fluoro-4-phenoxyphenyl)ethylamino)-6-methyl-1,3,5-triazin-2-yl)oxazolidin-2-one] | > 50 | 0.615 | > 50
CC[C@H]1COC(=O)N1c1nc(C)nc(N[C@@H](C)c2ccc(Oc3ccc4ccccc4c3)cc2)n1 [Compound 1.94, (S)-4-ethyl-3-(4-methyl-6-((S)-1-(4-(naphthalen-2-yloxy)phenyl)ethylamino)-1,3,5-triazin-2-yl)oxazolidin-2-one] | > 50 | 0.52 | > 50
CC[C@H]1COC(=O)N1c1nc(C)nc(N[C@@H](C)c2ccc(Oc3cccnc3C(F)(F)F)cc2)n1 [Compound 1.81, (S)-4-ethyl-3-(4-methyl-6-((S)-1-(4-(2-(trifluoromethyl)pyridin-3-yloxy)phenyl)ethylamino)-1,3,5-triazin-2-yl)oxazolidin-2-one] | > 50 | 0.586 | > 50
CC(C)[C@H]1COC(=O)N1c1ncnc(NCc2ccc(Oc3ccccc3)cc2)n1 [Compound 1.28, (S)-4-isopropyl-3-(4-(4-phenoxybenzylamino)-1,3,5-triazin-2-yl)oxazolidin-2-one] | > 50 | 4.52 | > 50
CC[C@H](Nc1ncnc(N2C(=O)OC[C@@H]2C(C)C)n1)c1ccc(Oc2ccccc2)cc1 [Compound 1.35, (S)-4-isopropyl-3-(4-((S)-1-(4-phenoxyphenyl)propylamino)-1,3,5-triazin-2-yl)oxazolidin-2-one] | > 50 | 0.868 | > 30
CC[C@H]1COC(=O)N1c1nc(C)nc(N[C@@H](C)c2ccc3ccn(-c4ccccc4)c3c2)n1 [Compound 1.85, (S)-4-ethyl-3-(4-methyl-6-((S)-1-(1-phenyl-1H-indol-6-yl)ethylamino)-1,3,5-triazin-2-yl)oxazolidin-2-one] | > 50 | 0.914 | > 50
CC(C)[C@H]1COC(=O)N1c1ncnc(N[C@@H](C)c2ccc(Oc3ccccc3)cn2)n1 [Compound 1.19, (S)-4-isopropyl-3-(4-((S)-1-(5-phenoxypyridin-2-yl)ethylamino)-1,3,5-triazin-2-yl)oxazolidin-2-one] | > 50 | 1.66 | > 50

Now from value to compound:

IC50 (IDH2 mutant (R140Q)) [µM] | IC50 (IDH1 mutant (R132H)) [µM] | IC50 (IDH1-WT) [µM] | SMILES
> 50 | 0.642 | > 30 | CC(C)[C@H]1COC(=O)N1c1ncnc(N[C@@H](C)c2ccc(Oc3ccccc3)cc2)n1 [Compound 1.9, (S)-4-isopropyl-3-(4-((S)-1-(4-phenoxyphenyl)ethylamino)-1,3,5-triazin-2-yl)oxazolidin-2-one]
> 50 | 0.707 | > 50 | CC[C@H]1COC(=O)N1c1nc(N[C@@H](C)c2cn(-c3ccc(C(F)(F)F)cc3)cn2)nc(OC)n1 [Compound 1.41, (S)-4-ethyl-3-(4-methoxy-6-((S)-1-(1-(4-(trifluoromethyl)phenyl)-1H-imidazol-4-yl)ethylamino)-1,3,5-triazin-2-yl)oxazolidin-2-one]
> 50 | 19.4 | > 50 | CC(C)[C@H]1COC(=O)N1c1ncnc(N[C@@H](C)c2ccccc2)n1 [Compound 1.37, (S)-4-isopropyl-3-(4-((S)-1-phenylethylamino)-1,3,5-triazin-2-yl)oxazolidin-2-one]
> 50 | 0.277 | > 50 | CC[C@H]1COC(=O)N1c1nc(C)nc(N[C@@H](C)c2ccc(Oc3ccccc3)c(C)c2)n1 [Compound 1.86, (S)-4-ethyl-3-(4-methyl-6-((S)-1-(3-methyl-4-phenoxyphenyl)ethylamino)-1,3,5-triazin-2-yl)oxazolidin-2-one]
> 50 | 0.298 | > 50 | CC[C@H]1COC(=O)N1c1nc(C)nc(N[C@@H](C)c2cn(-c3ccc(C(F)(F)F)cc3)cn2)n1 [Compound 1.40, (S)-4-ethyl-3-(4-methyl-6-((S)-1-(1-(4-(trifluoromethyl)phenyl)-1H-imidazol-4-yl)ethylamino)-1,3,5-triazin-2-yl)oxazolidin-2-one]
> 50 | 3.3 | > 30 | CC(C)[C@H]1COC(=O)N1c1ncnc(N[C@@H](C)c2ccc(-c3ccc(C(F)(F)F)cc3)cn2)n1 [Compound 1.4, (S)-4-isopropyl-3-(4-((S)-1-(5-(4-(trifluoromethyl)phenyl)pyridin-2-yl)ethylamino)-1,3,5-triazin-2-yl)oxazolidin-2-one]
> 50 | 0.575 | > 30 | CC(C)[C@H]1COC(=O)N1c1ncnc(N[C@@H](C)c2cn(-c3ccc(C(F)(F)F)cc3)cn2)n1 [Compound 1.5, (S)-4-isopropyl-3-(4-((S)-1-(1-(4-(trifluoromethyl)phenyl)-1H-imidazol-4-yl)ethylamino)-1,3,5-triazin-2-yl)oxazolidin-2-one]
> 50 | 0.44 | > 50 | CC[C@H]1COC(=O)N1c1nc(C)nc(N[C@@H](C)c2ccc(Oc3ccc(F)cc3Br)cc2)n1 [Compound 1.78, (S)-3-(4-((S)-1-(4-(2-bromo-4-fluorophenoxy)phenyl)ethylamino)-6-methyl-1,3,5-triazin-2-yl)-4-ethyloxazolidin-2-one]
> 50 | 0.34 | > 50 | CC[C@H]1COC(=O)N1c1nc(C)nc(N[C@@H](C)c2ccc(Oc3ccc(C)cc3)cc2)n1 [Compound 1.83, (S)-4-ethyl-3-(4-methyl-6-((S)-1-(4-(p-tolyloxy)phenyl)ethylamino)-1,3,5-triazin-2-yl)oxazolidin-2-one]
> 50 | 0.749 | > 50 | CC[C@H]1COC(=O)N1c1nc(C)nc(N[C@@H](C)c2ccc(Sc3ccc(F)cc3)cc2)n1 [Compound 1.92, (S)-4-ethyl-3-(4-((S)-1-(4-(4-fluorophenylthio)phenyl)ethylamino)-6-methyl-1,3,5-triazin-2-yl)oxazolidin-2-one]
> 30 | 0.83 | > 30 | Cc1cc(-c2ccc([C@H](C)Nc3ncnc(N4C(=O)OC[C@@H]4C(C)C)n3)nc2)ccc1F [Compound 1.3, (S)-3-(4-((S)-1-(5-(4-fluoro-3-methylphenyl)pyridin-2-yl)ethylamino)-1,3,5-triazin-2-yl)-4-isopropyloxazolidin-2-one]
